One data set deals with T1, PCC7942_orf1594 protein (Synechococcus elongatus, UniProt Q54765).
T1 construct: His-tag (C); made in house; host or cells: E. coli BL21 (DE3)
T1 sequence (Q54765 1-341): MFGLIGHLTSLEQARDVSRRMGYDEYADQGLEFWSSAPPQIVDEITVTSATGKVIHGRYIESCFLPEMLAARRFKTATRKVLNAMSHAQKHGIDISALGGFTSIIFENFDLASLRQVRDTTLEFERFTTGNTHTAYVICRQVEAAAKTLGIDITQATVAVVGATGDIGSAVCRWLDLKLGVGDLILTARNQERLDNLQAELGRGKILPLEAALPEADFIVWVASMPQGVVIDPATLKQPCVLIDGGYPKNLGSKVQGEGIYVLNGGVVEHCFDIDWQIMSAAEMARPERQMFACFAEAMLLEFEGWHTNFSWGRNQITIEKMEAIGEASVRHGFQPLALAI
In words: acyl-ACP or acyl-CoA reductase enzyme assay (aldehyde formed, GC/MS). The class given is biochemical, Synechococcus elongatus PCC7942. The protocol: The genomic DNA encoding S. elongatus […] orf1594 (SEQ ID NO:65) was cloned into the NcoI and XhoI sites of vector pET-28b under the control of the T7 promoter. The resulting PCC7942_orf1594 protein contained a C-terminal His-tag. An E. coli BL21 strain (DE3) (Invitrogen) was transformed with the plasmid and PCC7942_orf1594 protein was expressed and purified as described in Example 22. The protein solution was stored in the following buffer: 50 mM sodium phosphate, pH 7.5, 100 mM NaCl, 1 mM THP, 10% glycerol. Protein concentration was determined using the Bradford assay (Biorad). 2 mg/mL of PCC7942_orf1594 protein was obtained.
To test PCC7942_orf1594 protein for acyl-ACP or acyl-CoA reductase activity, the following enzyme assays were set-up. 100 μL reactions were set-up in 50 mM Tris-HCl buffer at pH 7.5 with the following components at their respective final concentrations: 10 μM of purified PCC7942_orf1594 protein, 0.01-1 mM acyl-CoA or acyl-ACP, 2 mM MgCl2, 0.2-2 mM NADPH. The reactions were incubated for 1 h at 37° C. and where stopped by adding 100 μL ethyl acetate (containing 5 mg/l 1-octadecene as internal standard). Samples were vortexed for 15 min and centrifuged at max speed for 3 min for phase separation. 80 μL of the top layer were transferred into GC glass vials and analyzed by GC/MS as described in Example 26. The amount of aldehyde formed was calculated based on the internal standard.

In data set [1] the test system is Prochlorococcus marinus CCMP1986 PMM0532 (NP-892650; putative decarbonylase).
Where [2] appears, read: in the presence of 2 mM NADPH, 10 μM purified enzyme, 2 mM MgCl2, pH 7.5, 1 h at 37° C., read-out: Km for the reduction of the acyl substrate.

Read-outs that look alike come from different tables or passages of the source.

This note sets out measurements from patent publication US20120157717A1, “METHODS AND COMPOSITIONS FOR PRODUCING LINEAR ALKYL BENZENES” (LS9, INC., priority 2010, published 2012).

In general, Km refers to the concentration of substrate that gives half-maximal velocity.

With `NC(=O)C1=CN([C@@H]2O[C@H](COP(=O)(O)OP(=O)(O)OC[C@H]3O[C@@H](n4cnc5c(N)ncnc54)[C@H](OP(=O)(O)O)[C@@H]3O)[C@@H](O)[C@H]2O)C=CC1` [NADPH, reference compound], at PCC7942_orf1594 protein (in the presence of 0.5 mM octadecanoyl-CoA, read-out: Km value for NADPH), the Km is 400 ± 80 µM. As to `CCCCCCCCCCCCCCCCCC(=O)SCCNC(=O)CCNC(=O)[C@H](O)C(C)(C)COP(=O)(O)OP(=O)(O)OC[C@H]1O[C@@H](n2cnc3c(N)ncnc32)[C@H](O)[C@@H]1OP(=O)(O)O` [octadecanoyl-CoA], the Km at PCC7942_orf1594 protein (setting [2]) is 45 ± 20 µM. As for “Prochlorococcus marinus CCMP1986 PMM0533 (NP-892651; putative aldehyde-generating enzyme)”, the “hydrocarbon and fatty alcohol production by cotransformed E. coli MG1655 (GC/MS)” value in data set [1] is “E. coli cells transformed with only the P. marinus CCMP1986 PMM0533-bearing vector did not produce any fatty aldehydes or fatty alcohols. However, E. coli cells cotransformed with PMM0533 and PMM0532-bearing vectors produced hexadecanol, pentadecane and heptadecene”. Consider octadecenoyl-ACP, for which, in the data set with PCC7942_orf1594 protein (setting [2]), the Km worked out at 7.8 ± 2 µM. As to octadecenoyl-CoA, the Km at PCC7942_orf1594 protein (setting [2]) was determined as 82 ± 22 µM.

B1: Synechococcus elongatus PCC7942 YP-400611 (Synpcc7942-1594) acyl-ACP reductase, purified with C-terminal His-tag (protein)
chain: MFGLIGHLTSLEQARDVSRRMGYDEYADQGLEFWSSAPPQIVDEITVTSATGKVIHGRYIESCFLPEMLAARRFKTATRKVLNAMSHAQKHGIDISALGGFTSIIFENFDLASLRQVRDTTLEFERFTTGNTHTAYVICRQVEAAAKTLGIDITQATVAVVGATGDIGSAVCRWLDLKLGVGDLILTARNQERLDNLQAELGRGKILPLEAALPEADFIVWVASMPQGVVIDPATLKQPCVLIDGGYPKNLGSKVQGEGIYVLNGGVVEHCFDIDWQIMSAAEMARPERQMFACFAEAMLLEFEGWHTNFSWGRNQITIEKMEAIGEASVRHGFQPLALAI
B1: in the data set with octadecenoyl-ACP, the “Km for the reduction of octadecenoyl-ACP in the presence of 2 mM NADPH (in vitro reductase assay, GC/MS)” value amounted to 7.8 ± 2 µM.
